Results from patent publication US20110152267A1, “Compositions and Methods for Treating Hyperproliferative Disorders” (Texas Tech University System, priority 2009, published 2011).

How the values were obtained:
Format in all cases: cell-based, human
Conditions in all cases: 96 h
[1] = system: A-549 lung adenocarcinoma cell line; assay: DIMSCAN cytotoxicity, fenretinide + L-threo-sphinganines 3:1 (Example B13)
Method in brief: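 A-549 cells attached overnight, then exposed 96 h at 37 °C to fenretinide and L-threo-sphinganines alone or at 3:1 fenretinide:sphinganine. Viability via fluorescein diacetate with eosin Y quench, digital imaging microscopy; survival fraction versus vehicle wells, with Chou-Talalay combination index (CI<0.9 synergy).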

[2] = system: OVCAR-8 ovarian adenocarcinoma cell line; assay: DIMSCAN cytotoxicity, fenretinide + L-threo-sphinganines 3:1 (Example B15); set-up: key to CI (Combination Index): Chou-Talalay CI: <0.9 synergy, 0.9-1.1 additive, >1.1 antagonism
Method in brief: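 OVCAR-8 cells (2000–10,000/well) attached overnight, then treated with fenretinide and L-threo-sphinganines singly or at 3:1 fenretinide:sphinganine for 96 h at 37°C. Viable cells measured by fluorescein diacetate uptake with eosin Y quench (DIMSCAN); survival fraction versus vehicle, synergy by Chou-Talalay combination index.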

[3] = system: A-2058 melanoma cell line; assay: DIMSCAN cytotoxicity, fenretinide + L-threo-sphinganines 3:1 (Example B11)
Method in brief: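 A-2058 human melanoma cells plated at 2000–10,000/well, attached overnight, then exposed 96 h at 37 °C to fenretinide and L-threo-sphinganines alone or at 3:1 fenretinide:sphinganine. Viable cells quantified by DIMSCAN (fluorescein diacetate 8 µg/mL, eosin Y quench); survival fraction vs vehicle controls; synergy by Chou-Talalay combination index.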

[4] = system: SJ-G2 Glioblastoma cell line; assay: DIMSCAN cytotoxicity, fenretinide + L-threo-sphinganines 3:1 (Example B8)
Method in brief: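 SJ-G2 glioblastoma cells were exposed for 96 h at 37 °C to fenretinide and L-threo-sphinganines, alone and at a 3:1 fenretinide:sphinganine ratio, with 12 wells per concentration. Viable cells were measured by DIMSCAN (fluorescein diacetate uptake with eosin Y quench), giving survival fraction versus vehicle. Combination interaction was assessed by Chou-Talalay combination index.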

[5] = system: T98G Glioblastoma multiforme cell line; assay: DIMSCAN cytotoxicity, fenretinide + L-threo-sphinganines 3:1 (Example B6)
Method in brief: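 T98G cells (2000–10,000/well) attached overnight, then exposed 96 h at 37° C. to fenretinide and L-threo-sphinganines alone or at 3:1 fenretinide:sphinganine, 12 wells per concentration. Viable cells quantified by fluorescein diacetate (8 microgram/mL)/eosin Y digital imaging microscopy as survival fraction versus vehicle; synergy by Chou-Talalay Combination Index.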

[6] = system: U-266 Multiple Myeloma cell line; assay: DIMSCAN cytotoxicity, fenretinide + L-threo-sphinganines 3:1 (Example B3)
Method in brief: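 Cells plated at 2000–10,000/well, attached overnight, then exposed 96 h at 37 °C to fenretinide and L-threo-sphinganines alone or at 3:1 fenretinide:sphinganine. Viable cells read by DIMSCAN (fluorescein diacetate 8 microgram/mL, eosin Y quench) as survival fraction versus vehicle; synergy scored by Chou-Talalay combination index.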

[7] = system: HT-29 colorectal adenocarcinoma cell line; assay: DIMSCAN cytotoxicity, fenretinide + L-threo-sphinganines 3:1 (Example B10)
Method in brief: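 HT-29 cells exposed 96 h at 37° C to fenretinide and L-threo-sphinganines alone or at 3:1 fenretinide:sphinganine, 12 wells per concentration. Viable cells quantified by DIMSCAN (fluorescein diacetate, eosin Y quench); survival fraction versus vehicle controls, combinations assessed by Chou-Talalay combination index.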

[8] = system: A-172 Glioblastoma multiforme cell line; assay: DIMSCAN cytotoxicity, fenretinide + L-threo-sphinganines 3:1 (Example B4); set-up: key to CI (Combination Index): Chou-Talalay CI: <0.9 synergy, 0.9-1.1 additive, >1.1 antagonism
Method in brief: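 A-172 cells attached overnight, then exposed 96 h at 37 °C/5% CO2 to fenretinide and L-threo-sphinganines alone or at 3:1 fenretinide:sphinganine, 12 wells per concentration. Viable cells quantified by DIMSCAN (fluorescein diacetate 8 microgram/mL final, eosin Y quench); survival fraction vs vehicle controls; synergy by Chou-Talalay combination index.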

[9] = 4-HPR 1.5 μM + L-threo-sphinganine 0.5 μM
[10] = 4-HPR 3 μM + L-threo-sphinganine 1 μM
[11] = 4-HPR 6 μM + L-threo-sphinganine 2 μM
[12] = 4-HPR 9 μM + L-threo-sphinganine 3 μM

CCCCCCCCCCCC[C@H](O)[C@@H](N)CO [C15]
CI (Combination Index) [1, 9]: 1.9 | Fa (fraction affected) [1, 9]: 0.000 | CI (Combination Index) [1, 10]: 2.1 | Fa (fraction affected) [1, 10]: 0.000 | CI (Combination Index) [1, 11]: 0.9 | Fa (fraction affected) [1, 11]: 0.044 | CI (Combination Index) [1, 12]: 0.8 | Fa (fraction affected) [1, 12]: 0.342 | CI (Combination Index) [2, 9]: 0.1 | Fa (fraction affected) [2, 9]: 0.668 | CI (Combination Index) [2, 10]: 0.1 | Fa (fraction affected) [2, 10]: 0.854 | CI (Combination Index) [2, 11]: 0.1 | Fa (fraction affected) [2, 11]: 0.977 | CI (Combination Index) [2, 12]: 0.2 | Fa (fraction affected) [2, 12]: 0.977 | CI (Combination Index) [3, 9]: 0.5 | Fa (fraction affected) [3, 9]: 0.053 | CI (Combination Index) [3, 10]: 0.9 | Fa (fraction affected) [3, 10]: 0.106 | CI (Combination Index) [3, 11]: 1.6 | Fa (fraction affected) [3, 11]: 0.262 | CI (Combination Index) [3, 12]: 1.7 | Fa (fraction affected) [3, 12]: 0.867 | CI (Combination Index) [4, 9]: 1.1 | Fa (fraction affected) [4, 9]: 0.135 | CI (Combination Index) [4, 10]: 1.3 | Fa (fraction affected) [4, 10]: 0.282 | CI (Combination Index) [4, 11]: 1.3 | Fa (fraction affected) [4, 11]: 0.620 | CI (Combination Index) [4, 12]: 1.0 | Fa (fraction affected) [4, 12]: 0.846 | CI (Combination Index) [5, 9]: 1.3 | Fa (fraction affected) [5, 9]: 0.516 | CI (Combination Index) [5, 10]: 1.3 | Fa (fraction affected) [5, 10]: 0.683 | CI (Combination Index) [5, 11]: 1.0 | Fa (fraction affected) [5, 11]: 0.849 | CI (Combination Index) [5, 12]: 0.4 | Fa (fraction affected) [5, 12]: 0.962 | CI (Combination Index) [6, 9]: 1.2 | Fa (fraction affected) [6, 9]: 0.085 | CI (Combination Index) [6, 10]: 1.5 | Fa (fraction affected) [6, 10]: 0.241 | CI (Combination Index) [6, 11]: 1.2 | Fa (fraction affected) [6, 11]: 0.697 | CI (Combination Index) [6, 12]: 0.9 | Fa (fraction affected) [6, 12]: 0.929 | CI (Combination Index) [7, 9]: 2.0 | Fa (fraction affected) [7, 9]: 0.204 | CI (Combination Index) [7, 10]: 0.8 | Fa (fraction affected) [7, 10]: 0.660 | CI (Combination Index) [7, 11]: 1.1 | Fa (fraction affected) [7, 11]: 0.859 | CI (Combination Index) [7, 12]: 0.8 | Fa (fraction affected) [7, 12]: 0.976 | CI (Combination Index) [8, 9]: 23.7 | Fa (fraction affected) [8, 9]: 0.001 | CI (Combination Index) [8, 10]: 1.4 | Fa (fraction affected) [8, 10]: 0.378 | CI (Combination Index) [8, 11]: 0.4 | Fa (fraction affected) [8, 11]: 0.991 | CI (Combination Index) [8, 12]: 0.4 | Fa (fraction affected) [8, 12]: 0.998
